Source: US20140057954A1, “CHEMICAL COMPOSITION” (FOREST LABORATORIES HOLDINGS LTD., priority 2012, published 2014)
In brackets after ≈: the same amount, converted by molar mass.

Tests used:
[1] = system: patients with mild to moderate hypertension; experiment: Population PK/PD analysis (Emax model) of nebivolol plasma concentration versus mean sitting DBP; format: in vivo, human
Protocol: The study involved first determining the relationship between nebivolol plasma concentration and the therapeutic diastolic blood pressure (DBP)-reducing effect by nebivolol when administered alone. A population PK/PD analysis was performed to assess the relationship between nebivolol plasma concentration and its therapeutic DBP-reducing effect. The analysis utilized PK/PD data that was collected from patients with mild to moderate hypertension following a Phase 3, double-blind, placebo-controlled, multicenter study. During the study, patients were randomized to 7 parallel treatment arms wherein the patient received either a placebo or any of 6 different doses of nebivolol (between 1.25 and 40 mg). The patients were also stratified across all treatment arms by covariates of race (African American vs non-African American), age (<65 vs≧65 years), gender, diabetes status (history of diabetes mellitus vs no history of diabetes mellitus), and by metabolism of nebivolol (PM vs EM of CYP 2D6). Blood pressure data was collected from each patient initially and at days 28 and 84 of treatment. The study results were refined and updated using nonlinear mixed-effects modeling (NONMEM) software, version VII, with first-order conditional estimation/interaction method. […] Moreover, the EC50 (half maximal effective concentration) was determined.

[2] = Crossover trial of nebivolol exposure, alone versus in free combination with valsartan, once daily for 7 days; format: in vivo, human
Protocol: […], 3-way crossover trial was performed in healthy subjects to assess the pharmacokinetic (pK) and pharmacodynamic (pD) impact of administered valsartan on nebivolol.
28 subjects aged 19-45 were randomized to the following once-daily treatments for 7 days under fasted conditions: (A) nebivolol alone (20 mg tablet) and (B) concomitant nebivolol 20 mg+valsartan 320 mg in free combination. Blood samples were collected from each subject for pK analysis at the following time points: 0 hour (predose) on Days 1, 14, and 27 and at 0 hour (predose) and 1, 2, 4, 6, 10, 16, 24, 36, and 48 hours postdose on Days 7, 20, and 33.
The bioanalytical procedure used to measure plasma concentrations of nebivolol was a LC/MS/MS (liquid chromatography/tandem mass spectrometry) method.
Among the pK parameters measured were AUC0-τ,ss (area under the plasma concentration versus time curve from time 0 to the dosing interval, τ, at steady state); Cdmax,ss (maximum plasma drug concentration at steady state); Tmax,ss (time of maximum plasma drug concentration following drug administration at steady state); Cmin,ss minimum plasma drug concentration at steady state); Cav,ss (average plasma drug concentration at steady state); and CL/F (apparent total clearance from plasma after oral administration). These pK parameters were derived from plasma concentrations using noncompartmental analysis with the software program SAS (version 9.1.3). In addition, the 2-sided 90% confidence interval (CI) for the ratio of geometric means of Cmax and AUC0-τ,ss between nebivolol coadministered with valsartan and nebivolol alone were constructed.

[3] = coadministered with valsartan versus nebivolol alone

OC(CNCC(O)C1CCc2cc(F)ccc2O1)C1CCc2cc(F)ccc2O1 (centres unmarked) [nebivolol]
EC50 ([1]; Homo sapiens, Emax model, mean sitting DBP, Phase 3 data, nebivolol 1.25-40 mg, read-out: EC50 estimate of d,l-nebivolol concentrations (DBP PK/PD model)): 0.0179 ng/mL (≈ 0.0441 nM) | Emax in DBP reduction ([1]; after correction for the placebo effect): approximately 5 mm Hg | decrease in mean nebivolol AUC0-τ [2, 3]: 15-20% | decrease in mean nebivolol Cmax [2, 3]: 40-50% | AUC ([2]; human, plasma, oral, 20 mg nebivolol once daily for 7 days, alone or with 320 mg valsartan, healthy subjects, fasted, steady state, read-out: nebivolol AUC0-τ, Arithmetic Mean): 41.5 ng·h/mL | Cmax ([2]; human, plasma, oral, 20 mg nebivolol once daily for 7 days, alone or with 320 mg valsartan, healthy subjects, fasted, steady state, read-out: nebivolol Cmax, Arithmetic Mean): 8.02 ng/mL | Cmax and CSS,max reduction ([2]; in the presence of valsartan): approximately 50% | mean reduction in nebivolol Cavg and CSS,avg ([2]; in the presence of valsartan): ~20%
